Patent US8142799B2, “High potency clinical anti-craving treatment and method of use” (priority 2001, dated 2012)

time to PH breakdown (L-Glutathione at a PH value of roughly 7 in the amino-acid component): a few weeks
PH above which L-glutathione itself breaks down (at compounding): above 7.2
Compound: N[C@@H](CCC(=O)N[C@@H](CS)C(=O)NCC(=O)O)C(=O)O [L-glutathione]
